Measured values as given in BindingDB's records for doi:10.1021/jm00041a005 (Agouron Pharmaceuticals, 1994).

Molecular target: T1, Dimer of Gag-Pol polyprotein [489-587] (Human immunodeficiency virus 1, UniProt P12497)
T1 construct: 489-587
Test: Protease Inhibition Assay
Details: pH 5.5; 37 °C
Protocol: Protease activity was measured by continuous chromogenic assay. The chromogenic peptide His-Lys-Ala-Arg-Val-Leu- (p-NO2-Phe)-Glu-Ala-Nleu-Ser (Bachem) was used as a substrate. Reactions were followed by the decrease of absorbance at 300 nm measured by spectrophotometer. Experimental results were analyzed by the nonlinear regression analysis, using a mathematical model for tight binding inhibitors.

Structure (SMILES) | Ki [nM]
NC(=O)C[C@H](NC(=O)c1ccc2ccccc2n1)C(=O)N[C@@H](Cc1ccccc1)[C@@H](O)C[C@@H](Cc1ccccc1)C(=O)NC(c1ccccc1)c1cc2ccccc2[nH]1 (stereo partly drawn) [2 -Benzyl-4-h ydrox y-5((N -2-quinaloyl-L-asparagyl)amidno)-6-phenylhexanoic Acid (a-(2-indolylbenzyl)amide] | 1280
NC(=O)C[C@H](NC(=O)c1ccc2ccccc2n1)C(=O)N[C@@H](Cc1ccccc1)[C@@H](O)CCC(=O)NC(c1ccccc1)c1nc2ccccc2[nH]1 (stereo partly drawn) [4-Hydroxy-5-( (N-2-quinaloyl-L-asparagyl)amino)-6-phenylhexanoic Acid (a-(2-benzyimidazolyl)benzyl)amide] | 480
Cc1cccc(C(NC(=O)CC[C@H](O)[C@H](Cc2ccccc2)NC(=O)[C@H](CC(N)=O)NC(=O)c2ccc3ccccc3n2)c2cc3ccccc3[nH]2)c1 (stereo partly drawn) [4-Hydroxy-5-((N-2-quinaloyl-L-asparagyl)amino)-6-phenylhexanoic Acid (a-(2-indolyl)-m-methylbenzyl)amide] | 39
C[C@H](N)C(=O)N[C@@H](C)C(=O)N[C@@H](Cc1ccccc1)[C@@H](O)CCC(=O)NC(c1ccccc1)c1nc2ccccc2[nH]1 (stereo partly drawn) [5-(L-Alanyl-L-alanylamino)-4-hydroxy-phenylhexanoic Acid ((1H-BenzimiaazOl-2-yl)phenylmethyl)amide] | 5370
NC(=O)C[C@H](NC(=O)c1ccc2ccccc2n1)C(=O)N[C@@H](Cc1ccccc1)[C@@H](O)CCC(=O)NC(c1cccc(C(F)(F)F)c1)c1cc2ccccc2[nH]1 (stereo partly drawn) [(2S)-N-[(2S,3S)-3-hydroxy-5-({1H-indol-2-yl[3-(trifluoromethyl)phenyl]methyl}carbamoyl)-1-phenylpentan-2-yl]-2-(quinolin-2-ylformamido)butanediamide] | 33
NC(=O)C[C@H](NC(=O)c1ccc2ccccc2n1)C(=O)N[C@@H](Cc1ccccc1)[C@@H](O)CCC(=O)NC(c1ccccc1)c1cc2ccccc2[nH]1 (stereo partly drawn) [(2S)-N-[(2S,3S)-3-hydroxy-5-{[1H-indol-2-yl(phenyl)methyl]carbamoyl}-1-phenylpentan-2-yl]-2-(quinolin-2-ylformamido)butanediamide] | 43
NC(=O)C[C@H](NC(=O)c1ccc2ccccc2n1)C(=O)N[C@@H](Cc1ccccc1)[C@@H](O)CCC(=O)NC(c1cc2ccccc2[nH]1)C1CCCCC1 (stereo partly drawn) [(2S)-N-[(2S,3S)-5-{[cyclohexyl(1H-indol-2-yl)methyl]carbamoyl}-3-hydroxy-1-phenylpentan-2-yl]-2-(quinolin-2-ylformamido)butanediamide] | 180
COC(=O)[C@@H](NC(=O)[C@@H](NC(=O)CC[C@H](O)[C@H](Cc1ccccc1)NC(=O)[C@H](C)NC(=O)[C@H](C)N)C(C)C)C(C)C [methyl (2S)-2-[(2S)-2-[(4S,5S)-5-[(2S)-2-[(2S)-2-aminopropanamido]propanamido]-4-hydroxy-6-phenylhexanamido]-3-methylbutanamido]-3-methylbutanoate] | 18
